Experimental findings from ChEMBL document CHEMBL5608176, “Binding sites and design strategies for small molecule GLP-1R agonists” (Eur J Med Chem, 2024) are described below.

For assay [1], the target named is Glucagon-like peptide 1 receptor (Homo sapiens, UniProt P43220). Nature of the assay: Agonist activity at human GLP-1 expressed in HEK293 cells assessed as […] in intracellular cAMP accumulation incubated for 60 mins by HTRF assay. Type of assay: functional, cell-based. For orientation: cAMP levels reflect the balance of adenylyl cyclase and phosphodiesterase activity.
Sequence of Glucagon-like peptide 1 receptor (P43220 whole entry): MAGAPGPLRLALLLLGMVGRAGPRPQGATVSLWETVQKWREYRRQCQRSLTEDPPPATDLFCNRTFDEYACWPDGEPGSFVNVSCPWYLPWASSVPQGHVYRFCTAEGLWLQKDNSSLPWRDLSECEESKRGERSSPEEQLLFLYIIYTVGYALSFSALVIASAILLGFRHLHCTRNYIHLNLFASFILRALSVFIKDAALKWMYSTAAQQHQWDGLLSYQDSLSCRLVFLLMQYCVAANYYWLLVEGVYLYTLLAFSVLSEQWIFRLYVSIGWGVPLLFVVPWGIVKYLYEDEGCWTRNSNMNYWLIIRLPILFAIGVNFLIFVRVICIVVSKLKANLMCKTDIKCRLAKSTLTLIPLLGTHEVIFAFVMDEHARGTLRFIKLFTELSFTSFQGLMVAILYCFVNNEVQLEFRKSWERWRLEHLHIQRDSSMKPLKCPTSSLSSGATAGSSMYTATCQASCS

In assay [2] the target is Voltage-gated inwardly rectifying potassium channel KCNH2 (Homo sapiens, UniProt Q12809). The assay is described as follows: Inhibition of hERG potassium channel by patch clamp assay. Type of assay: toxicity. (Block of hERG is tested as a sign of cardiac risk.)
Sequence of Voltage-gated inwardly rectifying potassium channel KCNH2 (Q12809 whole entry): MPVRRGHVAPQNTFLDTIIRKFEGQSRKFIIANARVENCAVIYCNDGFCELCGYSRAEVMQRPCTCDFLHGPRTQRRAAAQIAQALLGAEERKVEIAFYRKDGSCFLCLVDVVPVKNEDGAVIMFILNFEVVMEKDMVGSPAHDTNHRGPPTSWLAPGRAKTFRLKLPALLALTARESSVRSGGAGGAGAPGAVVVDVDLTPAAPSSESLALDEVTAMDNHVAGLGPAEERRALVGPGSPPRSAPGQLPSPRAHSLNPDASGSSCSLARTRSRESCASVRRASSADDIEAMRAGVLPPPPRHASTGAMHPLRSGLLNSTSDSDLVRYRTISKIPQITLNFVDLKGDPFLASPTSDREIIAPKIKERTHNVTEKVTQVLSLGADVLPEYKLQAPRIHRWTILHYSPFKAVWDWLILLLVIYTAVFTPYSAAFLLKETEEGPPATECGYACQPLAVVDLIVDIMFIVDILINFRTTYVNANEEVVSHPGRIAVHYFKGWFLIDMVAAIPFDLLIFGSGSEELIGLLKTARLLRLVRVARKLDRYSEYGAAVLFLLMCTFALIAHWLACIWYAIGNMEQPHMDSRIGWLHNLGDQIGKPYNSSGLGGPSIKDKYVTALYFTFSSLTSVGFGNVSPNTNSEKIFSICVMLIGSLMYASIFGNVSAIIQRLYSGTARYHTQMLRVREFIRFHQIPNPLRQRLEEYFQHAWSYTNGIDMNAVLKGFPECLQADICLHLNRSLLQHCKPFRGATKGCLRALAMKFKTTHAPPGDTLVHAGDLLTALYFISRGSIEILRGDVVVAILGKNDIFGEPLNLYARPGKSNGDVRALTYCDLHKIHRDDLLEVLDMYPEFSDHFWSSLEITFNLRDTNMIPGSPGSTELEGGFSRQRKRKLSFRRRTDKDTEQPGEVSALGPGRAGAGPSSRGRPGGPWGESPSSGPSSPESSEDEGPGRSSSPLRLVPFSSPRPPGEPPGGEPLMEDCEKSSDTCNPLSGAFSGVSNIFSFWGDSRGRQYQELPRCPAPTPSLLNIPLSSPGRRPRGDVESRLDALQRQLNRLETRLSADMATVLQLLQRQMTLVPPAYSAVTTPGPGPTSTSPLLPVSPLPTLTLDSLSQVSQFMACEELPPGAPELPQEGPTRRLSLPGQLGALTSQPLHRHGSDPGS

A word on the EC50: it is the concentration needed to bring the measured effect to its halfway point. With `COCCn1ncc2c(F)c(-n3ccn(-c4c5c(nn4-c4cc(C)c(F)c(C)c4)CCN(C(=O)c4cc6cc([C@H]7CCOC(C)(C)C7)ccc6n4[C@@]4(c6noc(=O)[nH]6)C[C@@H]4C)[C@H]5C)c3=O)ccc21`, the EC50 in assay [1] worked out at 2.1 nM.
On the same count and under the same terms, the result for `COc1nccc(-c2ccc3c(c2)cc(C(=O)N2CCc4nn(-c5cc(C)c(F)c(C)c5)c(-n5ccn(-c6ccc7c(cnn7C)c6F)c5=O)c4[C@@H]2C)n3[C@@]2(c3noc(=O)[nH]3)C[C@@H]2C)c1C` reads 2.7 nM.
As for `Cn1c(CN2CCC(c3cccc(OCc4ccc(Cl)cc4F)n3)CC2)nc2ccncc21`, in assay [2], the midpoint of the response, the EC50, lay at 77 nM.
